# In patent US20200253979A1, “THERAPEUTIC METHODS RELATING TO HSP90 INHIBITORS” (AI Therapeutics, Inc., priority 2017, published 2020):
# Where two headings read alike, the source gives them in different places.
# Experiments:
# [1] = test system: cell surface FLT3 in MV-4-11 cells; assay: Cell surface FLT3 by flow cytometry; assay type: cell-based; details: MV-4-11, 1 μM, 24 hours
# Description: (§1) To determine whether MPC-0767 can promote the degradation of FLT3-ITD and abolish downstream signaling, MV-4-11 and MOLM-13 cells were treated with vehicle or MPC-0767 (1 μM) for 24 hours. Cells were harvested for flow cytometry to assess cell surface FLT3 protein abundance. In addition, the measurement of a key phosphorylation site of S6 (phospho-S6) was used as a marker for oncogenic FLT3-ITD signaling (Zimmerman et al., Blood. 2013 122(22): 3607-3615). Indeed, in both MV-4-11 and MOLM-13 cells treated with MPC-0767 there was a >65% reduction in cell surface FLT3 (FIGS. 10A and 10B, respectively) and >70% reduction in phospho-S6 (FIGS. 10C and 10D, respectively).
# [2] = test system: primary AML samples harboring FLT3-ITD; assay: Annexin V / 7AAD cell death by flow cytometry; assay type: cell-based, human; details: increasing concentrations, 72 hours, 4 primary samples
# Description: To test whether the anti-leukemic effect of MPC-0767 is due to induction of cell death, 4 primary AML samples (all harboring FLT3-ITD) were treated with increasing concentrations of MPC-0767 for 72 hours. Samples were then processed for quantification by flow cytometry of cells positive for annexin V and 7AAD. These markers allow the detection of cell death, specifically dead (7AAD only positive), early apoptotic (annexin V only positive) or late stage apoptotic/necrotic (7AAD and annexin V positive) populations were combined to give a readout of cell death.
# [3] = test system: NSCLC cell lines HCC-827, H1975, PC-9 and H1781; assay: CellTiter-Glo cell viability in NSCLC cell lines; assay type: cell-based; details: 98-50000 nM, 3 days; HCC-827, H1975, PC-9, H1781
# Description: The NSCLC cell lines HCC-827 (EGFR L858R), H1975 (EGFR L858R/T790M) PC-9 (EGFR Del E746_A750) and H1781 (HER2 G7776insV G/C) were treated with MPC-0767 at a concentration range of 98-50000 nM for 3 days, after which time cell viability was determined using CellTiter-Glo® reagent.
# [4] = test system: cell surface FLT3 in MOLM-13 cells; assay: Cell surface FLT3 by flow cytometry; assay type: cell-based, human; details: 24 hours
# Description: as §1
# We next explored whether the synergistic activity of MPC-0767 and ATO was due to a more complete abrogation of FLT3-ITD oncogenic signaling. […] After this time cells were harvested for the assessment of cell surface FLT3 expression by flow cytometry. To additionally measure the effects of abrogating FLT3, we assessed phospho-ERK (pERK) and phospho-S6 (pS6), as these are two known downstream effectors.
# [5] = test system: MOLM-14 cells (FLT3-ITD); assay: CellTiter-Glo cell viability (single agent and combination); assay type: cell-based; details: 72 hours; for IC50: Homo sapiens, MOLM-14, 72 h, read-out: EC50 (cell viability)
# Description: HS-5 is a human marrow stromal cell line that secretes various growth factors sufficient to support hematopoietic progenitor growth (Roecklein et al., Blood, 1995) which thus mimics stromal conditions.
# Three cell lines which harbor FLT3-ITD were used for the drug combination studies (MV-4-11, MOLM-13, and MOLM-14).
# Cells were treated with the drugs (single agent or combination) for 72 hours. Drug combination activity was determined by first measuring cell viability with CellTiter-Glo®, followed by the calculation of the EC50 corresponding to single agent activity, using the R DRC package (R Core Team, 2017). The combination index (CI) values were computed using the Chou-Talalay method (Chou T, Cancer Research., 2010 70(2): 440-6.), based on the viability of each drug alone and in combination, across all concentrations tested. In brief, CI was defined as: […]
# Loss of function mutations of KDM6A are observed in FLT3-ITD AML (Garg et al., 2015 Blood 126 (22):2491-501). […] To therapeutically exploit this finding, we hypothesized that inhibiting EZH2, the histone H3K27 methyltransferase that functionally opposes KDM6A, would enhance sensitivity to MPC-0767. To test this hypothesis, a FLT3-ITD cell line (MV-4-11) was used and treated with either of the two clinical stage EZH2 inhibitors, EPZ-6438 and CPI-1205, at 8 different concentrations for 4 days. Following this time, cells were counted, reseeded and treated with 8 concentrations of EZH2 inhibitor alone, 8 concentrations of MPC-0767 alone, or the combination of the two (64 total combinations).
# [6] = test system: PD-L1 on THP-1 cells; assay: PD-L1 expression on THP-1 cells by flow cytometry; assay type: cell-based; details: IFNγ overnight with MPC-0767 1 μM or 2 uM
# Excerpt: FIG. 29A-D: MPC-0767 repression of PD-L1 expression increases T cell activation. Bar graphs show activation of Jurkat reporter cells with anti-CD3 (A) and PD-L1-dependent inhibition of T cell activation after IFNγ treatment (B). Bars in A&B represent the mean +/− SD of triplicate wells and are representative of three independent experiments. […] Bars in C&D represent the mean +/− SD of three independent experiments.
# We next determined whether MPC-0767 reduction of PD-L1 could increase T cell stimulation similar to anti-PD-L1 blocking antibodies. THP-1 cells were treated overnight with IFNγ in the presence or absence of MPC-0767 (1 μM or 2 uM). THP-1 cells were washed and a portion saved for flow cytometry analysis of PD-L1 expression. The remaining cells were incubated with Jurkat reporter cells and anti-CD3 (10 ng/ml) for 6 hours.
# [7] = test system: OCIAML2 (OCI-AML-2) cells; assay: CellTiter-Glo cell viability (single agent and combination)
# Description: To determine whether MPC-0767 is efficacious against non-FLT3-ITD AML cells, we tested a panel of FLT3-wild type (FLT3-WT) AML cell lines and primary AML blasts for sensitivity to MPC-0767. Cells were treated with MPC-0767 for 72 hours before determining cell viability using the CellTiter-Glo® assay. […] To test whether the combination of MPC-0767 was synergistic with ATO, we tested a panel of AML cell lines. The cell lines include those harboring FLT3-ITD (MOLM-13, MOLM-14 and MV-4-11) or FLT3 WT (ME-1, THP-1, OCI-AML-2, HL60, NOMO-1, TUR and ML-2).
# [8] = test system: MOLM-13-LUC cells; assay: CellTiter-Glo cell viability; assay type: cell-based; details: Homo sapiens, 72 hours
# Excerpt: In the clinic, tyrosine kinase inhibitors that target FLT3 initially show positive responses, but patients inevitably relapse due to the development of drug-resistance through various mechanisms, as discussed above.
# [9] = test system: H1975 cells; assay: 7-AAD / annexin V cell death staining; assay type: cell-based; details: 0.7 μM, 72 hours
# Description: To verify the mechanism of the loss of cell viability, H1975 cells were treated with MPC-0767 (0.7 μM) for 72 hours. After this time, cells were stained with 7-amino-actinomycin D (7-AAD) and annexin V, markers of cell membrane integrity and of apoptosis, respectively.
smiles,measurement,setting,value
C[C@H](N)C(=O)O[C@@H](C)C(=O)N1CCC(CCn2c(Sc3cc4c(cc3Br)OCO4)nc3c(N)ncnc32)CC1 [MPC-0767],reduction in cell surface FLT3,[1],> 65%
same,cell death (annexin V and/or 7AAD positive),[2],dose-dependent increase in cell death
same,EC50 (cell viability),[3],within clinically achievable concentrations
same,reduction in cell surface FLT3,"[4]; MOLM-13, 1 μM",> 65%
same,FLT3 level (cell surface),"[4]; MOLM-13, MPC-0767 800 nM, ATO 625 nM or combination",reduced
same,IC50,"[5]; MOLM-14, non-stromal media",423 nM
same,IC50,"[5]; MOLM-14, stromal media (HS-5 conditioned)",627 nM
same,viability of KDM6A sgRNA cells vs non-targeting sgRNA,"[5]; MOLM-14, MPC-0767 1 μM",conferred resistance to MPC-0767
same,PD-L1 expression on THP-1 cells,[6],dose-dependently reduced PD-L1 expression
same,EC50,"[7]; Homo sapiens, OCI-AML2, 72 h",633 nM
same,MPC-0767 Sensitivity,"[7]; OCIAML2, 72 h",Sensitive (cell lines having EC50 values below 1 μM were considered to be sensitive)
same,EC50,[8],496 nM
same,percentage of cells displaying markers of cell death,[9],increase
same,percentage of viable cells (7-AAD negative and annexin V negative),[9],decrease
